Measurements from article PMC11434026, “Development and Validation of an LC-MS/MS Assay for the Quantitation of MO-OH-Nap Tropolone in Mouse Plasma: Application to In Vitro and In Vivo Pharmacokinetic Studies” (Molecules, 2024).

Experiment: Blood to plasma ratio (B/P) in fresh mouse blood
Assay type: in vitro ADME
Conditions: 1 µM, 37 °C
Protocol: Fresh mouse blood (800 µL) was incubated in a water bath maintained at 37 °C for 10 min prior to drug spiking. Blood was spiked with the drug at concentrations of 1 µM to maintain organic content < 1%. Aliquots of 50 µL were collected at different time points (0, 30, and 60 min) for blood analysis as well an additional sample of 120 µL was collected into a micro-centrifuge tube and centrifuged at 4000× g for 10 min at 4 °C to separate 50 µL plasma for analysis. For matrix match and calibration, blank plasma of 50 µL was added to the collected blood aliquot, and 50 µL of blank blood was added to the extract of 50 µL plasma. The whole blood and plasma samples were further processed by PPT as described above. The analyte peak area ratios were used to calculate the (B/P) ratio using Equation (5). (5) (B/P) ratio=Blood Concentration /Plasma Concentration

O=c1c(O)ccccc1-c1ccc2ccccc2c1 [MO-OH-Nap, MO-OH-Nap tropolone]
B/P Ratio (0 min): 1.1 ± 0.1 | B/P Ratio (30 min): 0.9 ± 0.2 | B/P Ratio (60 min): 1.0 ± 0.12
